# Reference: ChEMBL document CHEMBL5523713, “Development of novel N-aryl-2,4-bithiazole-2-amine-based CYP1B1 degraders for reversing drug resistance” (Eur J Med Chem, 2024)
# The source made the active and inactive calls. No cut-off for these calls is given here.
# Tests used:
# A549/TR [1] = assay: Reversal of taxol resistance in human A549/Taxol cells assessed as decrease in cell viability at 1 to 10 nM incubated for 48 to 72 hrs by MTT assay; format: functional, cell-based; conditions: dose 1-10 nM, time 48-72 hrs
# [2] = target: T1, von Hippel-Lindau disease tumor suppressor/Cytochrome P450 1B1 (Homo sapiens, UniProt Q16678+P40337); assay: PROTAC activity at VHL/CYP1B1 in human A549/Taxol cells assessed as reduction in CYP1B1 level at 1000 nM incubated for 24 hrs by Western blotting analysis; format: ADME, cell-based; design: scale not given: the % may be the effect or the level left; conditions: 1 µM
# A549/TR [3] = assay: Inhibition of epithelial-to-mesenchymal transition in human A549/Taxol cells assessed as downregulation of vimentin protein expression at 0.1 to 10 nM incubated for 24 hrs by immunoblot analysis; format: functional, cell-based; conditions: dose 0.1-10 nM
# A549/TR [4] = assay: Effect on paxillin protein level in human A549/Taxol cells at 0.1 to 10 nM incubated for 24 hrs by Western blotting analysis; format: functional, cell-based; conditions: dose 0.1-10 nM
# A549/TR [5] = assay: Inhibition of cell invasion in human A549/Taxol cells at 0.1 to 10 nM incubated for 24 hrs by crystal violet staining based transwell assay; format: functional; conditions: dose 0.1-10 nM
# A549/TR [6] = assay: Inhibition of epithelial-to-mesenchymal transition in human A549/Taxol cells assessed as downregulation of N-cadherin protein expression at 0.1 to 10 nM incubated for 24 hrs by immunoblot analysis; format: functional, cell-based; conditions: dose 0.1-10 nM
# [7] = target: T1, von Hippel-Lindau disease tumor suppressor/Cytochrome P450 1B1; assay: PROTAC activity at VHL/CYP1B1 in human A549/Taxol cells assessed as reduction in CYP1B1 level incubated for 24 hrs by Western blotting analysis; format: ADME, cell-based
# [8] = target: von Hippel-Lindau disease tumor suppressor/Cytochrome P450 1A1 (Homo sapiens, UniProt P04798+P40337); assay: PROTAC activity at VHL/CYP1A1 (unknown origin); format: ADME, protein assay
# Cytochrome P450 1B1 = target: T2, Cytochrome P450 1B1 (Homo sapiens, UniProt Q16678); assay: Inhibition of recombinant human CYP1B1 using 7-ethyl-O-resorufin as substrate incubated for 30 mins in presence of NADPH by EROD assay; format: ADME
# T2 sequence (Q16678 whole entry): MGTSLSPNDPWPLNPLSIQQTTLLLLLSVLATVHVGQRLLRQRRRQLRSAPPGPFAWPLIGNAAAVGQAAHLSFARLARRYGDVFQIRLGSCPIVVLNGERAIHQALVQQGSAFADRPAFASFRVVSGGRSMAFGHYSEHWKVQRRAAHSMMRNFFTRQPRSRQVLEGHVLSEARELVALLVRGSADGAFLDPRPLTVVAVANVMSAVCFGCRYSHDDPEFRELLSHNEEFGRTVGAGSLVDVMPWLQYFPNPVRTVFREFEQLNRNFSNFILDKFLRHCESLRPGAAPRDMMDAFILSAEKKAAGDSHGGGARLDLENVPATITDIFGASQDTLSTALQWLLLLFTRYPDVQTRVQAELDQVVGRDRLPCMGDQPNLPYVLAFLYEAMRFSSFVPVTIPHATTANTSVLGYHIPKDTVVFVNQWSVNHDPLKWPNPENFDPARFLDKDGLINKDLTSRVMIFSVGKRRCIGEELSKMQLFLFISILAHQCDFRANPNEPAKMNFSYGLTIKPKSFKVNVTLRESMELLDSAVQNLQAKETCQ
# A549/TR [9] = assay: Effect on total SRC protein level in human A549/Taxol cells incubated for 24 hrs by Western blotting analysis; format: functional, cell-based; conditions: dose 0.1-10 nM
# [10] = target: Proto-oncogene tyrosine-protein kinase Src (Homo sapiens) (UniProt P12931); assay: Inhibition of SRC phosphorylation in human A549/Taxol cells incubated for 24 hrs by Western blotting analysis; format: cell-based; conditions: dose 0.1-10 nM
# [11] = target: T1, von Hippel-Lindau disease tumor suppressor/Cytochrome P450 1B1; assay: PROTAC activity at VHL/CYP1B1 in human A549/Taxol cells assessed as degradation by measuring fold change in remaining CYP1B1 level at 1000 nM incubated for 24 hrs by Western blotting analysis (reference value: 1); format: ADME, cell-based; conditions: 1 µM
# [12] = target: T1, von Hippel-Lindau disease tumor suppressor/Cytochrome P450 1B1; assay: PROTAC activity at VHL/CYP1B1 in human A549/Taxol cells assessed as reduction in CYP1B1 level at 1 nM incubated for 24 hrs by Western blotting analysis; format: ADME, cell-based; design: scale not given: the % may be the effect or the level left; conditions: 0.001 µM
# A549/TR [13] = assay: Downregulation of P-glycoprotein expression in human A549/Taxol cells at 0.1 to 10 nM by Western blotting analysis; format: functional, cell-based; conditions: dose 0.1-10 nM
# A549/TR [14] = assay: Effect on total FAK protein level in human A549/Taxol cells at 0.1 to 10 nM incubated for 24 hrs by Western blotting analysis; format: functional, cell-based; conditions: dose 0.1-10 nM
# [15] = target: Focal adhesion kinase 1 (Homo sapiens) (UniProt Q05397); assay: Inhibition of FAK phosphorylation in human A549/Taxol cells at 0.1 to 10 nM incubated for 24 hrs by Western blotting analysis; format: cell-based; conditions: dose 0.1-10 nM
# A549/TR [16] = assay: Inhibition of cell migration in human A549/Taxol cells incubated for 48 hrs by wound healing assay; format: functional, cell-based; conditions: dose 0.1-10 nM
# [17] = target: T1, von Hippel-Lindau disease tumor suppressor/Cytochrome P450 1B1; assay: PROTAC activity at VHL/CYP1B1 in human A549/Taxol cells assessed as reduction in CYP1B1 level at 10 nM incubated for 24 hrs by Western blotting analysis; format: ADME, cell-based; design: scale not given: the % may be the effect or the level left; conditions: 0.01 µM
# [18] = target: T1, von Hippel-Lindau disease tumor suppressor/Cytochrome P450 1B1; assay: PROTAC activity at VHL/CYP1B1 in human A549/Taxol cells assessed as reduction in CYP1B1 level at 10 nM incubated for 1 hr by Western blotting analysis; format: ADME, cell-based; conditions: 0.01 µM
# A549/TR [19] = assay: Inhibition of epithelial-to-mesenchymal transition in human A549/Taxol cells assessed as upregulation of E-cadherin protein expression at 0.1 to 10 nM incubated for 24 hrs by immunoblot analysis; format: functional, cell-based; conditions: dose 0.1-10 nM
# A549/TR [20] = assay: Reversal of taxol resistance in human A549/Taxol cells assessed as decrease in cell viability at 0.1 nM incubated for 48 to 72 hrs by MTT assay; format: functional, cell-based; conditions: time 48-72 hrs
# [21] = target: T1, von Hippel-Lindau disease tumor suppressor/Cytochrome P450 1B1; assay: PROTAC activity at VHL/CYP1B1 in human A549/Taxol cells assessed as degradation by measuring fold change in remaining CYP1B1 level at 1 nM incubated for 24 hrs by Western blotting analysis (reference value: 1); format: ADME, cell-based; conditions: 0.001 µM
# [22] = target: Proto-oncogene tyrosine-protein kinase Src (Homo sapiens) (UniProt P12931); assay: Inhibition of SRC phosphorylation in human A549/Taxol cells at 0.1 to 10 nM incubated for 24 hrs by Western blotting analysis; format: cell-based; conditions: dose 0.1-10 nM
# Cytochrome P450 1A1 = target: T3, Cytochrome P450 1A1 (Homo sapiens, UniProt P04798); assay: Inhibition of recombinant human CYP1A1 using 7-ethyl-O-resorufin as substrate incubated for 30 mins in presence of NADPH by EROD assay; format: ADME
# T3 sequence (P04798 whole entry): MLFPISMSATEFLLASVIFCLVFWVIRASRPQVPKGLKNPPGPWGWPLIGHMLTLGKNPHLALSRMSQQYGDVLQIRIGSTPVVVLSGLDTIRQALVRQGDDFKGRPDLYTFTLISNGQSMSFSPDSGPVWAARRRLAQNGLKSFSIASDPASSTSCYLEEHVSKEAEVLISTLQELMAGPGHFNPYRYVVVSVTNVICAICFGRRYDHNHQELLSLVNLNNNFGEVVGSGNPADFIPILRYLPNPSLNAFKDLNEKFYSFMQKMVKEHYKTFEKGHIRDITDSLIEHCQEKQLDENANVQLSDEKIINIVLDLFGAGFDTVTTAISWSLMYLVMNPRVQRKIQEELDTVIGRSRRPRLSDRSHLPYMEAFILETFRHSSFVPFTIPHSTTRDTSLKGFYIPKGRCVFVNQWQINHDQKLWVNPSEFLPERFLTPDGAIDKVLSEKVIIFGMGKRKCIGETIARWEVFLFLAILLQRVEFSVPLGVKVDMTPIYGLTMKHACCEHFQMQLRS
# [23] = target: T1, von Hippel-Lindau disease tumor suppressor/Cytochrome P450 1B1; assay: PROTAC activity at VHL/CYP1B1 in human A549/Taxol cells assessed as reduction in CYP1B1 level at 100 nM incubated for 24 hrs by Western blotting analysis; format: ADME, cell-based; conditions: 0.1 µM
# [24] = target: T1, von Hippel-Lindau disease tumor suppressor/Cytochrome P450 1B1; assay: PROTAC activity at VHL/CYP1B1 in human A549/Taxol cells assessed as degradation by measuring fold change in remaining CYP1B1 level incubated for 24 hrs by Western blotting analysis (reference value: 1); format: ADME, cell-based
# A549/TR [25] = assay: Inhibition of epithelial-to-mesenchymal transition in human A549/Taxol cells assessed as reduction in CYP1B1 expression at 0.1 to 10 nM incubated for 24 hrs by immunoblot analysis; format: functional, cell-based; conditions: dose 0.1-10 nM
# Cytochrome P450 1A2 = target: T4, Cytochrome P450 1A2 (Homo sapiens, UniProt P05177); assay: Inhibition of recombinant human CYP1A2 using 7-ethyl-O-resorufin as substrate incubated for 30 mins in presence of NADPH by EROD assay; format: ADME
# T4 sequence (P05177 whole entry): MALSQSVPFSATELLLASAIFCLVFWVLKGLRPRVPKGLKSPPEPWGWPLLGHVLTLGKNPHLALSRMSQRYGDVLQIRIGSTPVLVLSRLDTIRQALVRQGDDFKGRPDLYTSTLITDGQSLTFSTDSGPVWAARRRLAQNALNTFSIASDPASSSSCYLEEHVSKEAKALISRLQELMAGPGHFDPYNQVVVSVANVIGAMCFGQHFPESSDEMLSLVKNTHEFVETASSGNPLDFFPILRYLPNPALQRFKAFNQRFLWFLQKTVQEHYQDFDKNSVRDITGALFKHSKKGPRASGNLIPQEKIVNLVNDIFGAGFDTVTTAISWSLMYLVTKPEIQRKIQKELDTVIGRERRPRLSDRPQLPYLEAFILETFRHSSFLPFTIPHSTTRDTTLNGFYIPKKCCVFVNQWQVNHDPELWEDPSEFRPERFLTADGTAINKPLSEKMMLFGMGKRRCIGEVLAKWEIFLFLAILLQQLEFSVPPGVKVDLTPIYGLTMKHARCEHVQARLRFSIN
# [26] = target: Protein cereblon/Cytochrome P450 1B1 (Homo sapiens, UniProt Q16678+Q96SW2); assay: PROTAC activity at CRBN/CYP1B1 in human A549/Taxol cells assessed as degradation by measuring fold change in remaining CYP1B1 level incubated for 24 hrs by Western blotting analysis (reference value: 1); format: ADME, cell-based
# [27] = target: T1, von Hippel-Lindau disease tumor suppressor/Cytochrome P450 1B1; assay: PROTAC activity at VHL/CYP1B1 in human A549/Taxol cells assessed as reduction in CYP1B1 level by Western blotting analysis; format: ADME, cell-based
# A549/TR [28] = assay: Inhibition of cell migration in human A549/Taxol cells at 0.1 to 10 nM incubated for 48 hrs by wound healing assay; format: functional, cell-based; conditions: dose 0.1-10 nM
# A549/TR [29] = assay: Reversal of taxol resistance in human A549/Taxol cells assessed as decrease in cell viability at 0.1 to 10 nM incubated for 48 to 72 hrs by MTT assay; format: functional, cell-based; conditions: dose 0.1-10 nM, time 48-72 hrs
# T1 sequence (P40337 whole entry, one chain of several): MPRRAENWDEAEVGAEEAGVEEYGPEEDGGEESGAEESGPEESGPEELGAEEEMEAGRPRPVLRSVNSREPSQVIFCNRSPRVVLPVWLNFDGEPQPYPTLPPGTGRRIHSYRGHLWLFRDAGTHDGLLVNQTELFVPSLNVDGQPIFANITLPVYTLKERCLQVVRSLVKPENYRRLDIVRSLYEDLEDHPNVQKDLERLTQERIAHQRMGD
# Proto-oncogene tyrosine-protein kinase Src (Homo sapiens), sequence (P12931 2-536 limits assumed): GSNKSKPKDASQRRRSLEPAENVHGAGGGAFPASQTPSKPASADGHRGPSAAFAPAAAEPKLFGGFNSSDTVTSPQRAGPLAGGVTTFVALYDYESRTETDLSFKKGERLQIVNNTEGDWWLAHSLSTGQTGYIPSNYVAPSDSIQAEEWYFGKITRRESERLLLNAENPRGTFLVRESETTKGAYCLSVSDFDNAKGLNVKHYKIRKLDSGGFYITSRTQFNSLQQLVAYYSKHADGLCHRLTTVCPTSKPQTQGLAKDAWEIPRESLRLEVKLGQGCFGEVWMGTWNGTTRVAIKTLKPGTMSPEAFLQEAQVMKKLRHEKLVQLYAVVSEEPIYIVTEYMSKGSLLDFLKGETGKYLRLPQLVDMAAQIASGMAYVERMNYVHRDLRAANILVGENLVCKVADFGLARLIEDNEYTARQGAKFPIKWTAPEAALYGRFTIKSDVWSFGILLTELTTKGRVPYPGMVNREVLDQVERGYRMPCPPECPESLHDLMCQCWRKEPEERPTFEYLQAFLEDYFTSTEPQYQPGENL
# Protein cereblon/Cytochrome P450 1B1, sequence (Q96SW2 whole entry, one chain of several): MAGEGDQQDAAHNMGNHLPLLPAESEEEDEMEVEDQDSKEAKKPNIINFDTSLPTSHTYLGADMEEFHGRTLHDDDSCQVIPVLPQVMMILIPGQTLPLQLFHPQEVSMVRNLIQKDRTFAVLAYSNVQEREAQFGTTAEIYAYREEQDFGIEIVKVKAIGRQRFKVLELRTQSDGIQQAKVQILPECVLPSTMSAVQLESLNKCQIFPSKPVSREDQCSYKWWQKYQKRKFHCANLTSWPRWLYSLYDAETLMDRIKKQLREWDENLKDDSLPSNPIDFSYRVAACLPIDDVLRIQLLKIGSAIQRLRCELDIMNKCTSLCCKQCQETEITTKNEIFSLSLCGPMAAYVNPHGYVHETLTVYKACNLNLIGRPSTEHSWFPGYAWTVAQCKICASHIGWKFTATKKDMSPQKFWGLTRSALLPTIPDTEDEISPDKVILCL
# von Hippel-Lindau disease tumor suppressor/Cytochrome P450 1A1, sequence (P40337 whole entry, one chain of several): as the sequence (P40337 whole entry, one chain of several) above
# Focal adhesion kinase 1 (Homo sapiens), sequence (Q05397 2-1052 limits assumed): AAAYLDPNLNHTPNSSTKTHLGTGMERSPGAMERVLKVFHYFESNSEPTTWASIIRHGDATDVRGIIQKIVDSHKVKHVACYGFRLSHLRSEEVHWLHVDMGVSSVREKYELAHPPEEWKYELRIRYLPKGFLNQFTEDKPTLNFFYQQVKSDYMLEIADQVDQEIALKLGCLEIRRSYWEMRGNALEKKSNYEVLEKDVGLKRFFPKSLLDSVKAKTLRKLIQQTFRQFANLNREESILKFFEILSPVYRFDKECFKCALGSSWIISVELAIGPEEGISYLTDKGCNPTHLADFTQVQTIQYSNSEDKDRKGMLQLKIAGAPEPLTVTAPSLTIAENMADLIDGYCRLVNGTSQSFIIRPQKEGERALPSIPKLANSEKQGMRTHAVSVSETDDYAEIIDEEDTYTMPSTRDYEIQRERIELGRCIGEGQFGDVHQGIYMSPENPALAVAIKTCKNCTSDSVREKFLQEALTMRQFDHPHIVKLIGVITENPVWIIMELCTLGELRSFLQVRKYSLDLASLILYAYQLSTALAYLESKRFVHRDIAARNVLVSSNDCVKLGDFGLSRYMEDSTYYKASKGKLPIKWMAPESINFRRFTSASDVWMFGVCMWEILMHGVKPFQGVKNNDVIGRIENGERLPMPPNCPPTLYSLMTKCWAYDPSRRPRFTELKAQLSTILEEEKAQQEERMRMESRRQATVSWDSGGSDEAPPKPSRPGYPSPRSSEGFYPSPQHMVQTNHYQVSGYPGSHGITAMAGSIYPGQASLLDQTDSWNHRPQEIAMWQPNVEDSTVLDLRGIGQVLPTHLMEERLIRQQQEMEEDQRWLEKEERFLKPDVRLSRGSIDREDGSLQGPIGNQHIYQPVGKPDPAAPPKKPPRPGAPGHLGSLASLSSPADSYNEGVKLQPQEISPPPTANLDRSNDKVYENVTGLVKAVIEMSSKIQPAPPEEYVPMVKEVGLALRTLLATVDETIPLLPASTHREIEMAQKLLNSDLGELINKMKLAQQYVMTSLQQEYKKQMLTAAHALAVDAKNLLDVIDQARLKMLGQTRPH
compound,measurement,setting,value
Cc1ncsc1-c1ccc([C@H](C)NC(=O)[C@@H]2C[C@@H](O)CN2C(=O)[C@@H](NC(=O)CCCCCCOc2ccccc2-c2csc(-c3csc(Nc4ccc(Cl)cc4)n3)n2)C(C)(C)C)cc1,Activity,A549/TR [1],Active
same,Activity,[2],60%
same,inhibition,A549/TR [3],Active
same,Activity,A549/TR [4],Active
same,inhibition,A549/TR [5],Active
same,inhibition,A549/TR [6],Active
same,DC50,[7],0.1 nM
same,Activity,[8],Not Active
same,inhibition (INH),"Cytochrome P450 1B1; human, recombinant enzyme, 0.5 h, time 30 min",Active
same,Activity,A549/TR [9],Dose-Dependent Effect
same,inhibition,[10],Active
same,fold change (FC),[11],0.6
same,Activity,[12],50%
same,Activity,A549/TR [13],Active
same,Activity,A549/TR [14],inactive
same,inhibition,[15],Active
same,inhibition,A549/TR [16],Dose-Dependent Effect
same,Activity,[17],80%
same,Activity,[18],Active
same,inhibition,A549/TR [19],Active
same,Activity,A549/TR [20],Active
same,fold change (FC),[21],0.5
Clc1ccc(Nc2nc(-c3nc(-c4ccccc4)cs3)cs2)cc1,inhibition,[22],Active
same,IC50,Cytochrome P450 1A1,279 nM
same,Activity,A549/TR [4],Active
same,Activity,[23],Not Active
same,fold change (FC),[24],1
same,inhibition,A549/TR [25],inactive
same,IC50,Cytochrome P450 1B1,11.9 nM
same,IC50,Cytochrome P450 1A2,3910 nM
same,Activity,A549/TR [13],inactive
same,fold change (FC),[26],0.8
same,Activity,[27],Not Active
same,inhibition,A549/TR [28],inactive
same,Activity,A549/TR [29],inactive
